Patent publication US5025036A, “Catechol carboxylic acids” (Hoffmann-La Roche Inc., priority 1989, dated 1991)

Experiments:
[1] = tested on: myeloperoxidase accumulation (acetic acid-induced colitis); assay: Acetic Acid-Induced Colitis in Rats, In Vivo; design: species or system male rats (Sprague-Dawley)
Description: The rat acetic acid-induced colitis bioassay has been described by J. E. Krawisz, et al. in Amer. J. Proc. Gastro. Col. Rec. Surg. 31: 11-18 (1980), and by P. Sharon and W. F. Stenson in Gastroenterolgy 88: 55-63 (1985) and 86: 453-460 (1984). Acetic acid-induced colitis is characterized by the movement of inflammatory cells into the colon, with the number of such cells in the mucosa being measured by the activity of myeloperoxidase, a marker enzyme for these cells. Positive desirable activity is indicated by a reduction in the high levels of myeloperoxidase caused by acetic acid. Male rats (Sprague-Dawley), weighing 150 to 300 g, were pretreated twice daily for two days with either the vehicle (water, or dimethylsulfoxide) or the test inhibitor compound suspended in water or dissolved in dimethylsulfoxide and orally administered. On the third day, the animals were dosed the same as on the previous two days, anesthetized with metofane, and 2 ml of 2.5% acetic acid was injected by syringe into the colonic lumen, followed immediately by 3 ml of air and a rinse consisting of 3 ml of phosphate-buffered saline (the acetic acid is present in the lumen for a sufficient period to cause inflammation without producing severe necrosis or irreversible damage). The animals were administered a second dose of the test compound in the same amount about 16 hours later. 24 hours after the acetic acid treatment, the animals were sacrificed, the colonic mucosa was surgically removed and homogenized in an aqueous buffer at pH 6 with a Tissumizer or similar device and myeloperoxidase was measured in the homogenate using o-phenylenediamine as a chromagen, as described by A. Voller, D. E. Bidwell and A. Bartlett in The Enzyme Linked Immunosorbent Assay (ELISA), Zoological Soc., London, 1979, pages 29-30. Control animals were pretreated with the vehicle and saline in place of acetic acid.

[2] = Rat In Vivo Model of Myocardial Ischemia (free radical generator infusion); design: species or system male spontaneously hypertensive rats; settings: 10 mg/kg iv; for Rat Ischemia Model % Infarction: percent of left ventricle infarcted of the animals with an infarct
Protocol: In this preparation a free radical generating (FRG) system consisting of purine (2.3 mM), xanthine oxidase (0.02 U/ml) and iron loaded transferring (0.6 μM) complex is infused into the carotid artery near the ostium of the coronary artery in spontaneously hypertensive rats. Blood is withdrawn before and 24 hours after the FRG challenge for measuring the isoenzymes of lactic acid dehydrogenase (LDH1 :LDH2). An increase in LDH1 :LDH2 ratio reflects cell damage to the myocardium. The electrocardiogram is also taken before and 24 hours after the FRG infusion. At the end of the experiment the heart is removed, sliced in a breadloaf fashion, and stained with triphenyltetrazolium chloride to determine infarct size. A drug or vehicle is administered intravenously 10-30 minutes before the FRG challenge. A drug is considered active if there is no elevation of the LDH1 :LDH2 ratio, no ECG abnormalities and no histologic evidence of an infarction.
Male spontaneously hypertensive rats (280-320 g) from Taconic Farms, were lightly anesthetized with sodium pentobarbital (30-50 mg/kg, i.p.). […] A catheter of PE 50 tubing was inserted into the right common carotid artery to a position proximal to the ostia of the coronary arteries and used to sample blood and infuse the free radical generator (FRG) system. A second catheter of PE 10 tubing was inserted into the left jugular vein to administer drugs. The infusion system for the FRG consisted of a double syringe infusion pump, Sage Model 351, with one syringe containing xanthine oxidase (0.01 units/ml) in a HEPES (0.05M) buffer and the other syringe containing purine (2.3 mM) plus Fe^3+ loaded transferring (0.06 μM) in a HEPES (0.05M) buffer. The FRG infused separately mixes simultaneously near the ostia of the coronary arteries. This infusion was delivered at a rate of 0.03 ml/minute for a total infusion time of 10 minutes. The drugs were infused over a one minute period in a 0.9% saline vehicle.
Standard Lead II ECG was monitored continuously on a Hewlett-Packard 7758A recorder prior to treatment, throughout the FRG infusion and 10 minutes post infusion. Catheters were removed and animals were allowed to recover and fed standard rat chow and water ad libitum. 24 hours following the FRG infusion, animals were reanesthetized with sodium pentobarbital (30-50 mg/kg, i.p.) and an ECG was obtained. Blood samples were taken prior to and after the FRG infusion and at the conclusion of the experiment. These samples were centrifuged and assayed for total lactate dehydrogenase (LDH) and lactate dehydrogenase isoenzymes (LDH1 :LDH2), using electrophoresis.
The animals were sacrificed, the hearts rapidly excised, and washed free of blood and sectioned. The left ventricle was weighed and stored in a Revco® freezer at -70° C. The left ventricle was sliced into 2 mm-thick rings, incubated in a 1% triphenyltetrazolium chloride solution for 20 minutes, and then fixed in a 10% formalin solution. Infarcted areas were measured and quantitated as a percentage of the total left ventricular volume.

Carrageenan pleurisy = assay: Carrageenan Pleurisy Test (In Vivo); design: species or system male Lewis rats; settings: Rattus norvegicus, po, read-out: Rat Carrageenan Pleurisy % Inhib. of Exudate Volume
ear edema = assay: Mouse Ear Edema Test (In Vivo), arachidonic acid; design: species or system CD-1 male mice; settings: topical, 1 h, at 1 mg topically
Description: Invest. Dermatol. 80:48 (1983) and Hames, Opas and Bonney, "Arachidonic Acid Metabolites in Mouse Ear Edema" Advances in Inflammation Research, 11:57 (1986). […] CD-1 male mice weighing 15 to 25 g were employed, and they were designated as follows: (1) Control Group, in which no arachidonic acid or test compound was to be applied, (2) Arachidonic Acid-Treated Group, in which no test compound was to be applied, and (3) Treated Group, in which the test compound was to be applied first, followed by the application of arachidonic acid. In the case of the Group (3) animals, the test compound, dissolved in acetone, was applied to the dorsal surface of the right ear of the mouse with a 25-microliter pipettor, with the dose of the test compound being varied. After 0.5 hours in some cases and 4 hours in others, the arachidonic acid was topically applied in the same manner as above to the pretreated ear areas. In each case of arachidonic acid application, an amount of 0.5 mg dissolved in 25 microliters of acetone was used. After 1 hour, the mice were sacrificed by carbon dioxide inhalation. A 6 mm-diameter standard biopsy punch was used to obtain a uniform tissue sample from the ear of each mouse so treated, and the tissue samples were weighed to the nearest 0.1 mg. The percent inhibition of ear edema formation was calculated as follows: [formula]

**Q.** What does the source list for `CCCc1c(OCCCCCCc2ccc(C(C)C)c(O)c2O)ccc(C(=O)O)c1O` [4-[6-[2,3-dihydroxy-4-(1-methylethyl)phenyl]hexyloxy]-2-hydroxy-3-propylbenzoic acid]?
**A.** Rat Acetic Acid Colitis Model % Inhib. of Myeloperoxidase Accumulation ([1]; 10 mg/kg p.o): 53 ± 12%; Rat Acetic Acid Colitis Model % Inhib. of Myeloperoxidase Accumulation ([1]; 100 mg/kg p.o): 86 ± 9%; Rat Ischemia Model Infarcts/Total [2]: 1/5; Rat Ischemia Model % Infarction [2]: 5%; inhibition in vivo at 75 mg/kg (Carrageenan pleurisy; at 75 mg/kg p.o): 47%; inhibition in vivo at 1 mg (ear edema): 45%

**Q.** Which “Rat Acetic Acid Colitis Model % Inhib. of Myeloperoxidase Accumulation” value ([1]; 10 mg/kg p.o) does the source give for `CCCc1c(OCCCCCCCCc2cccc(O)c2O)ccc(C(=O)O)c1O` [4-[8-(2,3-dihydroxyphenyl)octyloxy]-2-hydroxy-3-propylbenzoic acid] here?
**A.** 35 ± 7%

**Q.** What about the “Rat Acetic Acid Colitis Model % Inhib. of Myeloperoxidase Accumulation” value ([1]; 100 mg/kg p.o) of the same compound?
**A.** 27 ± 3%

**Q.** And the “Rat Ischemia Model Infarcts/Total” value [2]?
**A.** 1/5

**Q.** What about the “Rat Ischemia Model % Infarction” value [2] of the same compound?
**A.** 8%

**Q.** And the inhibition in vivo at 100 mg/kg (Carrageenan pleurisy; at 100 mg/kg p.o)?
**A.** 66%

**Q.** What about the inhibition in vivo at 1 mg (ear edema) of the same compound?
**A.** 78%
